Measurements: US20150051283A1, “COMPOSITION AND METHOD FOR INHIBITION OF PKNG FROM MYCOBACTERIUM TUBERCULOSIS” (priority 2013, published 2015)

Legend:
Type in all cases: biochemical
PknG [1] = biological target: T1, PknG (Mycobacterium tuberculosis, UniProt P9WI73)
T1 construct: Full-length PknG was overexpressed in Escherichia coli BL21(DE3) cells; made in house; host or cells: Escherichia coli BL21(DE3)

PknG [2] = biological target: T1, PknG; assay: Reversibility of PknG inhibition by thiol reagents (DTT, GSH); details: for effect of thiol reagent per se on control PknG kinase activity: 42 mM DTT or 24 mM GSH
PknG Rbx domain = biological target: T2, PknG Rbx domain (Mycobacterium tuberculosis, UniProt P9WI73); assay: Iron release from Rbx domain of PknG (BPS spectrophotometric determination); details: 50 μM of OA-NO2
T2 construct: Full-length PknG was overexpressed in Escherichia coli BL21(DE3) cells; made in house; host or cells: Escherichia coli BL21(DE3)
T2 sequence (P9WI73 whole entry, the tested form may be a part): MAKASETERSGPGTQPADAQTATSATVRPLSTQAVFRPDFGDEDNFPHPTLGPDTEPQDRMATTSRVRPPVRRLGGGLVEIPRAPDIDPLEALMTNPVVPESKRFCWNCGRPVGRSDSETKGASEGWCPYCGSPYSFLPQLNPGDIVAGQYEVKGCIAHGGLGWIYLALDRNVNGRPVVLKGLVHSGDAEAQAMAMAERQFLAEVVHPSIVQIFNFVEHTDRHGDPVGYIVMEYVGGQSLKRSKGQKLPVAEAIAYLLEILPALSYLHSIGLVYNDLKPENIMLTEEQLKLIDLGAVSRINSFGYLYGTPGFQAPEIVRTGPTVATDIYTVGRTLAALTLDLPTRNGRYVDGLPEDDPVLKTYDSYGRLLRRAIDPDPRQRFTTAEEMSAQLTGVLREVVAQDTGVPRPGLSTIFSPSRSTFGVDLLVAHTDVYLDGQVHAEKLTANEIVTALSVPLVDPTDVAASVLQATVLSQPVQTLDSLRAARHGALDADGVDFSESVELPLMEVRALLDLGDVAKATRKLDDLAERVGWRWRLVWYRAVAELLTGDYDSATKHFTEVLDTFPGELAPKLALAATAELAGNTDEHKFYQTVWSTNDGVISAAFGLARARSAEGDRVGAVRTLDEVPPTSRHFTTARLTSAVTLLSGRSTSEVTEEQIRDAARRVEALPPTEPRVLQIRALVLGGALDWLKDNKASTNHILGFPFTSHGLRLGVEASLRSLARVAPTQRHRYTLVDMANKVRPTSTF

PknG [3] = biological target: T1, PknG; assay: Time course of PknG inhibition, Kinase Glo Plus luminescent kinase assay; details: PknG 10 μM, 50 μM OA-NO2, pre-incubation 0 to 30 min, 25° C
Protocol: (§1) FIGS. 4A-4D are a series of graphs depicting PknG kinase activity inhibition by OA-NO2, in which FIG. 4A depicts GarA phosphorylation by PknG by linear MALDI-TOF mass spectrum of: GarA (m/z 17145, dashed line), GarA phosphorylated by PknG using a molar ratio PknG:GarA of 1:20 (m/z 17222, grey line) and GarA phosphorylated by PknG pretreated with 50 μM OA-NO2 for 10 minutes (m/z 17143, black line), FIG. 4B is a series of three panels depicting PknG autophosphorylation with an upper panel illustrating linear MALDI-TOF spectrum of native PknG after tryptic digestion showing basal autophoshporylation pattern. Unphosphorylated peptide (m/z 5395.8), monophosphorylated (m/z 5475.4) and diphosphorylated species (m/z 5555.1) are detected as expected, a middle panel depicting linear MALDI-TOF spectrum of PknG after incubation with ATP and Mn^2+ and further typtic digestion (autophoshorylation positive control). […] After 10 minutes of incubation enzyme activities were determined. Samples were analyzed in triplicates; and FIG. 4D depicts time dependent inhibition of PknG by OA-NO2. […] At the indicated time points aliquots of control and treated PknG were removed, and enzyme inhibition was determined using Kinase Glo® by comparison with control activity. Samples were analyzed in triplicates. […]

PknG [4] = biological target: T1, PknG; assay: PknG autophosphorylation (MALDI-TOF MS of tryptic phosphopeptides); details: 30 μM, 10 min before autophosphorylation reaction
Protocol: as §1

T1 sequence (P9WI73 whole entry): as the sequence (P9WI73 whole entry, the tested form may be a part) above

Molecule: CCCCCCCCC=CCCCCCCCC(=O)O [oleic acid, 9-octadecenoic acid, reference compound]
- effect on kinase activity (control) (PknG [1]; equivalent concentrations to OA-NO2, data not shown): no effect

Molecule: N[C@@H](CCC(=O)N[C@@H](CS)C(=O)NCC(=O)O)C(=O)O [GSH]
- effect of thiol reagent per se on control PknG kinase activity (PknG [2]): no effect

Molecule: NC(=O)CI [IAM, iodoacetamide, reference compound]
- effect on kinase activity (PknG [1]; IAM treatment (up to 150 μM, PknG 10 μM), only free Cys156 modified): without affecting kinase activity

Molecule: O[C@@H](CS)[C@@H](O)CS [DTT]
- effect of thiol reagent per se on control PknG kinase activity (PknG [2]): no effect

Molecule: 9- and 10-nitro-octadeca-9-cis-enoic acid [OA-NO2]
- iron present at the Rbx domain released (PknG Rbx domain): 70%
- ability to phosphorylate GarA (PknG [1]; 30 μM, molar ratio OA-NO2:PknG 3:1, 10 minutes of preincubation): clearly decreased
- IC50 (PknG [1]; PknG 8 μM, OA-NO2 0 to 80 μM, 10 min pre-incubation, 70 mM ammonium bicarbonate pH 8.0, 25° C, read-out: concentration at which 50% of enzyme inhibition was reached): 35 µM
- kinase activity of PknG (PknG [1]; micromolar concentrations, molar excess ranging from 1:1 to 1:3): noticeably inhibited
- kinase activity versus pre-incubation time (PknG [3]): decreased kinase activity in a time-dependent manner
- effect of OA-NO2 on PknG activity (reversibility) (PknG [2]): irreversible
- autocatalytic (autophosphorylation) activity (PknG [4]): inhibited
